Paper PMC2654417 (Combinatorial chemistry & high throughput screening, 2008)
Read-outs that look alike come from different tables or passages of the source.

Target: T1, glucocorticoid receptor (GR) (Homo sapiens, UniProt P04150)
T1 sequence (P04150 1-777): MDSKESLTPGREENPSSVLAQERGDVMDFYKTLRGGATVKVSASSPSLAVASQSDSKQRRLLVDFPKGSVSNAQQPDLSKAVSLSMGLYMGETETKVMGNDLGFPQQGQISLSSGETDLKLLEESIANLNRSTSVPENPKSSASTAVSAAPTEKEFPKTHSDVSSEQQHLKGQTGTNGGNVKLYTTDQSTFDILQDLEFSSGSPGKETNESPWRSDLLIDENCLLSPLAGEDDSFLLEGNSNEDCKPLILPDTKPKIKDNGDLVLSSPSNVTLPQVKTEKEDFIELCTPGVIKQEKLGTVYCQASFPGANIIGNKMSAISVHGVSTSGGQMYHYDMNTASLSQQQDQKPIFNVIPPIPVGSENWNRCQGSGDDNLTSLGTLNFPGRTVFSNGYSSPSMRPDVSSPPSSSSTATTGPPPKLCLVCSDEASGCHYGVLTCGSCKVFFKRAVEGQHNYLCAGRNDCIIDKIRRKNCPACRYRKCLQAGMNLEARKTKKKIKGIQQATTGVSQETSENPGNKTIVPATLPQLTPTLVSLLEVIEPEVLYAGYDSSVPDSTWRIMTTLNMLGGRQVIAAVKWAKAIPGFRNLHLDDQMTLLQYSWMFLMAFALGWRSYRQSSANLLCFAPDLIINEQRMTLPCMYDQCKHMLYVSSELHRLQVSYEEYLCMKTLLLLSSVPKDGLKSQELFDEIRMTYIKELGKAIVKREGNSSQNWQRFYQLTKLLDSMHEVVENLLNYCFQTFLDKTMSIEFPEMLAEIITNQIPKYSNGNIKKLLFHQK
Assay: GR-EFC nuclear translocation assay
Type: cell-based
Conditions: for EC50: read-out: qEC50; for qHTS Hill Slope: Hill slope of the qHTS curve fit; for log qEC50: log10 of qEC50 in M, printed as negative values; for qHTS Max Activity: maximal activity of the qHTS curve, inactive threshold […] (3σ)

[1] = qHTS curve fit, class 4 values are fit defaults
[2] = class 4 values are fit defaults

| EC50 | EC50 [1] | SMILES | qHTS Curve Class | further results |
| --- | --- | --- | --- | --- |
| > 9 µM |  | CC1(C)[C@@H](O)CC[C@@]2(C)[C@H]1CC[C@]1(C)[C@H]2C(=O)C=C2[C@@H]3C[C@@](C)(C(=O)O)CC[C@]3(C)CC[C@@]21C [NCGC00017244-01] | 4 (inactive, where activity was below 28.6% (3σ for the present assay)) |  |
|  | > 9 µM | C#C[C@]1(O)CC[C@@H]2[C@H]3CCc4cc(OC)ccc4[C@@H]3CC[C@@]21C [NCGC00016310-01] |  |  |
|  | 0.0557 µM | CC(=O)O[C@]1(C(C)=O)CC[C@H]2[C@@H]3C=C(C)C4=CC(=O)CC[C@]4(C)[C@H]3CC[C@@]21C [NCGC00016516-01] |  | qHTS Hill Slope: 0.49; log qEC50 [2]: −7.254; qHTS Max Activity: 47.2 |
| > 9 µM |  | CC(=O)O[C@H]1C[C@@]2(C)[C@@H](C[C@@H](O)[C@H]3[C@@]4(C)CC[C@@H](O)[C@@H](C)[C@@H]4CC[C@@]32C)/C1=C(\CCC=C(C)C)C(=O)[O-].[Na+] [NCGC00017030-01] | 4 (inactive, where activity was below 28.6% (3σ for the present assay)) |  |
|  | > 9 µM | C[C@H](CCC(=O)O)[C@H]1CC[C@@H]2[C@H]3CC[C@H]4C[C@@H](O)CC[C@@]4(C)[C@H]3CC[C@]21C [NCGC00016445-01] |  |  |
|  |  | CC(=O)OCC(=O)[C@@]1(O)CC[C@@H]2[C@H]3CCC4=CC(=O)CC[C@]4(C)[C@]3(F)[C@@H](O)C[C@@]21C [NCGC00016476-01] |  | qHTS Hill Slope: 0.75; qHTS Max Activity: 74.0 |
|  | > 9 µM | CC(=O)O[C@@H]1CC[C@]2(C)[C@H]3CC[C@]4(C)[C@H](C[C@H]5CCCC[C@@]54C(C)=O)[C@@H]3CC(=O)[C@@]2(O)C1 [NCGC00017282-01] |  |  |
|  |  | CC(=O)[C@@]1(O)CC[C@@H]2[C@@H]3CCC4=CC(=O)CC[C@@]4(C)[C@H]3CC[C@]21C [NCGC00015510-01] |  | qHTS Hill Slope: 0.35; qHTS Max Activity: 100.0 |
| > 9 µM |  | CC(=O)[C@H]1CC[C@H]2[C@@H]3C=CC4=CC(=O)CC[C@@]4(C)[C@@H]3CC[C@]12C [NCGC00016413-01] | 4 (inactive, where activity was below 28.6% (3σ for the present assay)) |  |
|  |  | C[C@H]1C[C@@H]2[C@H]([C@@H](O)C[C@@]3(C)[C@H]2CC[C@]3(O)C(=O)CO)[C@@]2(C)C=CC(=O)C=C12 [NCGC00016330-01] |  | qHTS Hill Slope: 0.98; qHTS Max Activity: 63.5 |
|  | > 9 µM | COc1cc2c(cc1O)CCC1C2CC[C@@]2(C)C1CC[C@@H]2O (stereo partly drawn) [NCGC00025300-01] |  |  |
| > 9 µM |  | CC(=O)O[C@@H]1C[C@]2(C)[C@H](C[C@@H](O)[C@H]3[C@@]4(C)CC[C@@H](O)[C@@H](C)[C@@H]4CC[C@@]32C)/C1=C(\CCC=C(C)C)C(=O)[O-].[Na+] [NCGC00016148-01] | 4 (inactive, where activity was below 28.6% (3σ for the present assay)) |  |
|  |  | CC(=O)CC(=O)[C@@]1(O)CC[C@@H]2[C@@H]3C=C(C)C4=CC(=O)CC[C@@H]4[C@H]3CC[C@]21C [NCGC00016884-01] |  | qHTS Hill Slope: 0.57; qHTS Max Activity: 15.6 |
|  |  | C#C[C@@]1(O)CC[C@@H]2[C@@H]3CCC4=CC(=O)CC[C@@]4(C)[C@H]3CC[C@]21C [NCGC00016444-01] |  | qHTS Hill Slope: 0.97; qHTS Max Activity: 15.2 |
|  |  | C#C[C@@]1(O)CC[C@@H]2[C@@H]3CCC4=CC(=O)CC[C@@H]4[C@H]3CC[C@]21C [NCGC00016303-01] | 4 (inactive, where activity was below 28.6% (3σ for the present assay)) |  |
|  | > 9 µM | COc1cc2c(cc1O)CC[C@@H]1[C@@H]2CC[C@@]2(C)[C@H](O)CC[C@H]12 [NCGC00015690-01] |  |  |

| EC50 | EC50 [1] | SMILES | qHTS Curve Class | further results |
| --- | --- | --- | --- | --- |
| > 9 µM |  | C#C[C@@]1(O)CC[C@H]2[C@H]3CCC4=Cc5oncc5C[C@]4(C)[C@@H]3CC[C@@]21C [NCGC00015375-01] | 4 (inactive, where activity was below 28.6% (3σ for the present assay)) |  |
|  | 0.0827 µM | C[C@]12C=CC(=O)C=C1CC[C@@H]1[C@H]3C[C@@H](O)[C@](O)(C(=O)CO)[C@@]3(C)C[C@H](O)[C@]12F [NCGC00016376-01] |  | qHTS Hill Slope: 1.15; log qEC50 [2]: −7.082; qHTS Max Activity: 67.5 |
| > 9 µM |  | C=C(C)[C@H]1CC[C@]2(C(=O)O)CC[C@]3(C)[C@@H](CC[C@H]4[C@@]5(C)CC[C@@H](O)C(C)(C)[C@@H]5CC[C@@]43C)[C@H]12 [NCGC00016449-01] | 4 (inactive, where activity was below 28.6% (3σ for the present assay)) |  |
| > 9 µM |  | CC(C)CCC(=O)O.C[C@@]12CCC(=O)C[C@@H]1CC(=O)[C@H]1[C@H]3CCC[C@]3(C)C(=O)C[C@@H]12 [NCGC00017016-01] | 4 (inactive, where activity was below 28.6% (3σ for the present assay)) |  |
| > 9 µM |  | C#C[C@]1(O)CC[C@H]2[C@H]3CCC4=Cc5oncc5C[C@]4(C)[C@@H]3CC[C@]21C [NCGC00024732-01] | 4 (inactive, where activity was below 28.6% (3σ for the present assay)) |  |
| > 9 µM |  | C#C[C@]1(O)CC[C@H]2[C@@H]3CCC4=CCCC[C@@H]4[C@H]3CC[C@@]21C [NCGC00016233-01] | 4 (inactive, where activity was below 28.6% (3σ for the present assay)) |  |
|  |  | C[C@@H]1C[C@@H]2[C@H]3CCC4=CC(=O)C=C[C@]4(C)[C@]3(Cl)[C@@H](O)C[C@@]2(C)[C@@]1(O)C(=O)CO [NCGC00015136-01] |  | qHTS Hill Slope: 0.67; qHTS Max Activity: 105.1 |
|  | > 9 µM | C[C@H](CCC(=O)NCC(=O)O)[C@H]1CC[C@H]2[C@H]3[C@@H](C[C@@H](O)[C@]12C)[C@]1(C)CC[C@H](O)C[C@@H]1C[C@@H]3O [NCGC00016452-01] |  |  |
|  | > 9 µM | C[C@]12CC[C@@H]3c4ccc(O)cc4CC[C@H]3[C@@H]1CC[C@@H]2OC(=O)CCC1CCCC1 [NCGC00013034-01] |  |  |
|  | > 9 µM | COc1ccc2c(c1)CC[C@H]1[C@@H]2CC[C@@]2(C)[C@@H](NCCCCCCN3C(=O)C=CC3=O)CC[C@@H]12 [NCGC00025091-01] |  |  |
|  | > 9 µM | CC[C@H](CC[C@H](C)[C@@H]1CC[C@@H]2[C@H]3CC=C4C[C@@H](O)CC[C@]4(C)[C@H]3CC[C@]21C)C(C)C [NCGC00016331-01] |  |  |
|  | 0.035 µM | CC(=O)OCC(=O)[C@@]1(O)CC[C@H]2[C@@H]3CCC4=CC(=O)C=C[C@]4(C)[C@@]3(F)[C@@H](O)C[C@@]21C [NCGC00016433-01] |  | qHTS Hill Slope: 0.52; log qEC50 [2]: −7.456; qHTS Max Activity: 80.8 |
|  | > 9 µM | C[C@@]12CC[C@@H]3c4ccc(OS(=O)(=O)O)cc4CC[C@H]3[C@H]1CCC2=O [NCGC00016682-01] |  |  |
| > 9 µM |  | CC(=O)O[C@H]1CC[C@@]2(C)[C@@H](CC[C@@]3(C)[C@H]2C(=O)C=C2[C@H]4C[C@](C)(C(=O)OCCN5CCCCC5)CC[C@]4(C)CC[C@@]23C)C1(C)C [NCGC00017165-01] | 4 (inactive, where activity was below 28.6% (3σ for the present assay)) |  |
|  | 0.0128 µM | CC(=O)OCC(=O)[C@@]12OC(C)(C)O[C@@H]1C[C@H]1[C@@H]3C[C@H](F)C4=CC(=O)C=C[C@]4(C)[C@@]3(F)[C@@H](O)C[C@@]12C [NCGC00016436-01] |  | log qEC50 [2]: −7.893; qHTS Max Activity: 47.0 |

| SMILES | EC50 | EC50 [1] | qHTS Curve Class | further results |
| --- | --- | --- | --- | --- |
| C[C@]12C[C@H]3S[C@H]3C[C@@H]1CC[C@@H]1[C@@H]2CC[C@]2(C)[C@@H](O)CC[C@@H]12 [NCGC00016609-01] | > 9 µM |  | 4 (inactive, where activity was below 28.6% (3σ for the present assay)) |  |
| C[C@@]12CC(=O)[C@H]3[C@@H](CCC4=CC(=O)CC[C@]43C)[C@H]1CCC2=O [NCGC00016440-01] |  | > 9 µM |  |  |
| C[C@H]1CC[C@]2(NC1)O[C@@H]1C[C@@H]3[C@@H]4CC=C5C[C@H](O)CC[C@@]5(C)[C@H]4CC[C@@]3(C)[C@H]1[C@@H]2C [NCGC00017170-01] |  | > 9 µM |  |  |
| CC(C)(O)/C=C\C(=O)[C@](C)(O)[C@H]1[C@H](O)C[C@]2(C)[C@@H]3CC=C4[C@@H](C=C(O)C(=O)C4(C)C)[C@]3(C)C(=O)C[C@@]12C [NCGC00014911-01] | > 9 µM |  | 4 (inactive, where activity was below 28.6% (3σ for the present assay)) |  |
| C[C@@H]1O[C@H](O[C@@H]2CC[C@@]3(C=O)[C@H]4CC[C@@]5(C)[C@@H](C6=CC(=O)OC6)CC[C@@]5(O)[C@@H]4CC[C@]3(O)C2)C[C@H](O)[C@@H]1O [NCGC00016524-01] |  | > 9 µM |  |  |
| C[C@@]12CC[C@H](O)C[C@@H]1CC[C@H]1[C@@H]2C[C@@H](O)[C@]2(C)[C@@H](C3=CC(=O)OC3)CC[C@]12O [NCGC00016591-01] |  | > 9 µM |  |  |
| CC(=O)OCC(=O)[C@H]1CC[C@H]2[C@@H]3CC[C@H]4C[C@H](O)CC[C@]4(C)[C@H]3C(=O)C[C@]12C [NCGC00016783-01] |  | > 9 µM |  |  |
| C[C@@H]1O[C@@H](O[C@@H]2C=C3CC[C@@H]4[C@H](CC[C@]5(C)[C@@H](c6ccc(=O)oc6)CC[C@]45O)[C@@]3(C)CC2)[C@H](O)[C@H](O)[C@H]1O [NCGC00016447-01] | > 9 µM |  | 4 (inactive, where activity was below 28.6% (3σ for the present assay)) |  |
